Results taken from patent US7968697B2, “Hepatitis C virus non-structural NS3/4A fusion gene” (ChronTech Pharma AB, priority 2005, dated 2011).
Where “and” joins values, the source holds several entries; their conditions need not be identical. Identical values can stand only once.

Columns and labels:
NS3 = test: NS3-specific IgG subclass EIA after rNS3 with or without ribavirin; type: in vivo, mice; details: 0.1 or 1.0 mg ribavirin with 10 μg rNS3 i.p. at weeks 0 and 4; bled at week six
Method: The mice were bled at week six and NS3-specific IgG subclasses were determined by EIA as described previously.

HBsAg = test: EIA antibody titer to HBsAg after Engerix vaccine with or without ribavirin; type: in vivo, mice; details: 1 mg ribavirin mixed with 2 μg Engerix i.p., booster week four, bled week six
Excerpt: (Engerix, SKB). […] A booster containing the same mixture was given on week four and all mice were bled on week six.

CD4+ T cell = test: In vitro recall assay, lymph node CD4+ T cell proliferation ([3H] thymidine); type: cell-based, mice; details: 100 μg rNS3 mixed with 1 mg ribavirin s.c.; ten days post-immunization; 96 h of culture
Method: This assay can be used with any ribavirin derivative or combinations of ribavirin derivatives to determine the extent that a particular vaccine formulation modulates a cellular immune response. […] The mice were sacrificed ten days post-immunization and their lymph nodes were harvested and drained. In vitro recall assays were then performed. (See e.g., Hultgren et al., J Gen Virol. 79:2381-91 (1998) and Hultgren et al., Clin. Diagn. Lab. Immunol. 4:630-632 (1997)). The amount of CD4^+ T cell proliferation was determined at 96 h of culture by the incorporation of [^3H] thymidine.

rNS3 = test: EIA antibody titre to rNS3 after immunization with rNS3 with or without ribavirin; type: in vivo, Balb/c mice; details: for Group mean titre (mean ± SD) to rNS3, Week 4 / Group mean titre (mean ± SD) to rNS3, Week 6 / Group mean titre (mean ± SD) to rNS3, Week 8 / Antibody titre to rNS3 at Week 4 / Antibody titre to rNS3 at Week 6 / Antibody titre to rNS3 at Week 8: i.p.; for Endpoint titre of rNS3 IgG at Week 1 / Endpoint titre of rNS3 IgG at Week 2 / Endpoint titre of rNS3 IgG at Week 3 / Antibody titre to rNS3 at Week 4 / Antibody titre to rNS3 at Week 6 / Antibody titre to rNS3 at Week 8: individual mouse
Method: In a first set of experiments, groups of three to five Balb/c mice (BK Universal, Uppsala, Sweden) were immunized i.p or s.c. (e.g., at the base of the tail) with 10 μg or 100 μg of recombinant hepatitis C virus non-structural 3 (rNS3) protein. […] Mice were injected with a total volume of 100 μl per injection.
At two and four weeks following i.p. immunization, all mice were bled by retro-orbital sampling. Serum samples were collected and analyzed for the presence of antibodies to rNS3. To determine the antibody titer, an enzyme immunoassay (EIA) was performed. (See e.g., Hultgren et al., J Gen Virol. 79:2381-91 (1998) and Hultgren et al., Clin. Diagn. Lab. Immunol. 4:630-632 (1997)). The antibody levels were recorded as the highest serum dilution giving an optical density at 405 nm more than twice that of non-immunized mice.
At four, six and eight weeks the mice were bled and serum was separated and frozen. After completion of the study, sera were tested for the levels of antibodies to recombinant NS3, as described above. Mean antibody levels to rNS3 were compared between the groups using Student's t-test (parametric analysis) or Mann-Whitney (non-parametric analysis) and the software package StatView 4.5 (Abacus Concepts, Berkely, Calif.). […] The values given represent end point titres to recombinant rNS3.
The levels of antibody to the antigen were then determined by EIA.
A second set of experiments was also performed. […] The mice were bled at week six and rNS3-specific IgG levels were determined by EIA as described previously.

[1] = system: NS3/4A-expressing EL-4 cells; test: In vivo challenge with NS3/4A-expressing EL-4 lymphoma cells, prophylactic and therapeutic; details: immunized only once; C57BL/6 mice
Method: To confirm that inhibition of tumor growth using the NS3/4A-expressing EL-4 cell line is fully dependent on an NS3/4A-specific immune response a control experiment was performed. Groups of ten C57BL/6 mice were either left nonimmunized, or immunized twice with the coNS3/4A plasmid. Two weeks after the last immunization the mice were challenged with an s.c. injection of 10^6 native EL-4 or NS3/4A-expressing EL-4 cells (NS3/4A-EL-4). An NS3/4A-specific immune response was required for protection, since only the immunized mice were protected against growth of the NS3/4A-EL-4 cell line (FIG. 13). Thus, this H-2^b-restricted model behaves similarly to the SP2/0H-2^d restricted model.
The tumor challenge model was then used to evaluate how effective the different immunogens were in priming a protective immunity against growth of NS3/4A-EL-4 tumor cells in vivo. […]
In vivo challenge of immunized mice with the NS3/4A-expressing SP2/0 myeloma or EL-4 lymphoma cell line was performed according to the method described by Encke et al., supra. […] The kinetics of the tumor growth was determined by measuring the tumor size through the skin at days six to 20. […]
To test the therapeutic effect of the vaccines groups of mice were inoculated with the tumor cells as described above. […] The tumor growth was monitored from day 6 to day 20.

[2] = 0.1 mg ribavirin mixed with 20 μg rNS3
[3] = 1.0 mg ribavirin mixed with 20 μg rNS3
[4] = 10.0 mg ribavirin mixed with 20 μg rNS3
[5] = 10 mg ribavirin with 10 μg rNS3
[6] = 10 mg ribavirin with 50 μg rNS3

Compound: NC(=O)c1ncn([C@@H]2O[C@H](CO)[C@@H](O)[C@H]2O)n1 [ribavirin, 1-β-D-ribofuranosyl-1,2,4-triazole-3-carboxamide]
- effect on the NS3-specific IgG subclass response (NS3): does not change the IgG subclass response
- effect on the antibody response to HBsAg vaccine (HBsAg): enhanced the response
- T cell proliferative response compared with 100 μg rNS3 in PBS (CD4+ T cell): much greater T cell proliferative response
- Mean endpoint titre of rNS3 IgG at Week 1 (rNS3; [2]): 1110 ± 1484
- Mean endpoint titre of rNS3 IgG at Week 2 (rNS3; [2]): 5060 ± 6921
- antibody titer compared with formulations composed of only rNS3 (rNS3; 1 mg of ribavirin and either 10 μg or 100 μg of rNS3, two weeks post-immunization): significantly greater antibody titer
- Mean endpoint titre of rNS3 IgG at Week 1 (rNS3; [3]): 360
- Mean endpoint titre of rNS3 IgG at Week 3 (rNS3; [3]): 5760 ± 6235
- Group mean titre (mean ± SD) to rNS3, Week 4 (rNS3; 1 mg ribavirin with 10 μg rNS3): 252 ± 107
- Group mean titre (mean ± SD) to rNS3, Week 6 (rNS3; 1 mg ribavirin with 10 μg rNS3): 28071 ± 16195
- Group mean titre (mean ± SD) to rNS3, Week 8 (rNS3; 1 mg ribavirin with 10 μg rNS3): 36642 ± 67565
- Group mean titre (mean ± SD) to rNS3, Week 4 (rNS3; 1 mg ribavirin with 50 μg rNS3): 150 ± 124
- Group mean titre (mean ± SD) to rNS3, Week 6 (rNS3; 1 mg ribavirin with 50 μg rNS3): 52500 ± 55549
- Group mean titre (mean ± SD) to rNS3, Week 8 (rNS3; 1 mg ribavirin with 50 μg rNS3): 37500 ± 62105
- Group mean titre (mean ± SD) to rNS3, Week 4 (rNS3; 3 mg ribavirin with 10 μg rNS3): 180 ± 128
- Group mean titre (mean ± SD) to rNS3, Week 6 (rNS3; 3 mg ribavirin with 10 μg rNS3): 30000 ± 13887
- Group mean titre (mean ± SD) to rNS3, Week 8 (rNS3; 3 mg ribavirin with 10 μg rNS3): 22500 ± 34637
- Group mean titre (mean ± SD) to rNS3, Week 4 (rNS3; 3 mg ribavirin with 50 μg rNS3): 387 ± 513
- Group mean titre (mean ± SD) to rNS3, Week 6 (rNS3; 3 mg ribavirin with 50 μg rNS3): 30000 ± 13887
- Mean endpoint titre of rNS3 IgG at Week 1 (rNS3; [4]): 360
- Mean endpoint titre of rNS3 IgG at Week 2 (rNS3; [4]): 5760 ± 6235
- Mean endpoint titre of rNS3 IgG at Week 3 (rNS3; [4]): 30960 ± 40888
- Group mean titre (mean ± SD) to rNS3, Week 4 (rNS3; [5]): 220 ± 139
- Group mean titre (mean ± SD) to rNS3, Week 4 (rNS3; [6]): 140 ± 124
- Group mean titre (mean ± SD) to rNS3, Week 6 (rNS3; [6]): 10929 ± 11928
- Group mean titre (mean ± SD) to rNS3, Week 8 (rNS3; [6]): 15214 ± 15380
- adjuvant effect on antibody levels, kinetics (rNS3; higher doses (1-10 mg) of ribavirin with 20 μg rNS3): enhance antibody levels at week three
- Endpoint titre of rNS3 IgG at Week 1 (rNS3; [2]): 2160 and 60 and <60
- Endpoint titre of rNS3 IgG at Week 2 (rNS3; [2]): 12960 and 60 and 2160
- Endpoint titre of rNS3 IgG at Week 3 (rNS3; [2]): 2160 (2×) and 60
- Endpoint titre of rNS3 IgG at Week 1 (rNS3; [3]): <60 (2×) and 360
- Endpoint titre of rNS3 IgG at Week 2 (rNS3; [3]): 60 and 2160 (2×)
- Endpoint titre of rNS3 IgG at Week 3 (rNS3; [3]): 12960 and 2160 (2×)
- Antibody titre to rNS3 at Week 4 (rNS3; 1 mg ribavirin with 10 μg rNS3): 300 (4×) and <60 (3×) and 60
- Antibody titre to rNS3 at Week 6 (rNS3; 1 mg ribavirin with 10 μg rNS3): 37500 (5×) and 1500 and 7500
- Antibody titre to rNS3 at Week 8 (rNS3; 1 mg ribavirin with 10 μg rNS3): 37500 and 1500 and 187500 and 7500 (4×)
- Antibody titre to rNS3 at Week 4 (rNS3; 1 mg ribavirin with 50 μg rNS3): 60 (5×) and 300 (3×)
- Antibody titre to rNS3 at Week 6 (rNS3; 1 mg ribavirin with 50 μg rNS3): 7500 and 37500 (6×) and 187500
- Antibody titre to rNS3 at Week 8 (rNS3; 1 mg ribavirin with 50 μg rNS3): 7500 (5×) and 187500 and 37500 (2×)
- Antibody titre to rNS3 at Week 4 (rNS3; 3 mg ribavirin with 10 μg rNS3): 60 (4×) and 300 (4×)
- Antibody titre to rNS3 at Week 6 (rNS3; 3 mg ribavirin with 10 μg rNS3): 37500 (6×) and 7500 (2×)
- Antibody titre to rNS3 at Week 8 (rNS3; 3 mg ribavirin with 10 μg rNS3): 7500 (4×) and 37500 (4×)
- Antibody titre to rNS3 at Week 4 (rNS3; 3 mg ribavirin with 50 μg rNS3): 60 (3×) and 300 (3×) and 1500
- Antibody titre to rNS3 at Week 6 (rNS3; 3 mg ribavirin with 50 μg rNS3): 37500 (6×) and 7500 (2×)
- Antibody titre to rNS3 at Week 8 (rNS3; 3 mg ribavirin with 50 μg rNS3): 7500 (5×) and 37500 (3×)
- Endpoint titre of rNS3 IgG at Week 1 (rNS3; [4]): 360 (2×) and <60
- Endpoint titre of rNS3 IgG at Week 2 (rNS3; [4]): 12960 and 2160 (2×)
- Endpoint titre of rNS3 IgG at Week 3 (rNS3; [4]): 77760 and 12960 and 2160
- Antibody titre to rNS3 at Week 4 (rNS3; [5]): 300 (2×) and <60 (5×) and 60
- Antibody titre to rNS3 at Week 6 (rNS3; [5]): 37500 (3×) and 300 (2×) and 7500 (2×)
- Antibody titre to rNS3 at Week 8 (rNS3; [5]): 37500 (3×) and 300 (2×) and 7500 (2×)
- Antibody titre to rNS3 at Week 4 (rNS3; [6]): 300 (2×) and 60 (5×)
- Antibody titre to rNS3 at Week 6 (rNS3; [6]): 7500 (5×) and 37500 (2×) and 1500
- Antibody titre to rNS3 at Week 8 (rNS3; [6]): 7500 (5×) and 37500 (2×) and 1500
- adjuvant effect on antibody levels, kinetics (rNS3; low doses (<1 mg) of ribavirin with 20 μg rNS3): enhance antibody levels at week one but not at week three

Compound: GAVQNEVTL (Artificial Peptide, NS3/4A H-2D Binding Peptide) [NS3-derived CTL peptide, ID; NO.: 37]
- protection against growth of NS3/4A-EL-4 tumors [1]: not protected
